The structures appear in SMILES notation. Structures can show the parent of a compound that is named as a salt.

The results in this text go back to PMC9839694, “Genetic basis of thiaminase I activity in a vertebrate, zebrafish Danio rerio” (Scientific Reports, 2023).

In assay [1] the target is T1, zebrafish TenA-like thiaminase I (NP_001314821.1) (Danio rerio, UniProt A0A0R4IDF2).
T1 construct: gene teni.1; synthetic gene in pET52b, expressed in E. coli Rosetta 2(DE3)pLysS, soluble lysate fraction; oligomer 25 to 100 kDa native
T1 sequence (A0A0R4IDF2 22-223): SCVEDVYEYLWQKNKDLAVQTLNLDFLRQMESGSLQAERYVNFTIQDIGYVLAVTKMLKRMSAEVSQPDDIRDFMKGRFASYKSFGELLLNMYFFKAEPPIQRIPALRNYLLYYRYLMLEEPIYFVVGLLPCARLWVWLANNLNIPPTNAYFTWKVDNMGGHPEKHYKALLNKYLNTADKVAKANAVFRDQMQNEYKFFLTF
Nature of the assay: in-gel thiaminase I activity staining (diazo-coupling) after electrophoresis. In kind it is biochemical. As to conditions: 0.89 mM thiamine-HCl with a co-substrate, 25 mM sodium phosphate, 37 °C.

In assay [2] the target is T2, Paenibacillus thiaminolyticus thiaminase I (WP_087440168) (Paenibacillus thiaminolyticus, UniProt B0FJ10).
T2 construct: gene bcmE; native enzyme in concentrated culture supernatant (strain 8188), and recombinant positive control from synthetic gene in pET52b in E. coli; 42 kDa monomer
T2 sequence (B0FJ10 31-409): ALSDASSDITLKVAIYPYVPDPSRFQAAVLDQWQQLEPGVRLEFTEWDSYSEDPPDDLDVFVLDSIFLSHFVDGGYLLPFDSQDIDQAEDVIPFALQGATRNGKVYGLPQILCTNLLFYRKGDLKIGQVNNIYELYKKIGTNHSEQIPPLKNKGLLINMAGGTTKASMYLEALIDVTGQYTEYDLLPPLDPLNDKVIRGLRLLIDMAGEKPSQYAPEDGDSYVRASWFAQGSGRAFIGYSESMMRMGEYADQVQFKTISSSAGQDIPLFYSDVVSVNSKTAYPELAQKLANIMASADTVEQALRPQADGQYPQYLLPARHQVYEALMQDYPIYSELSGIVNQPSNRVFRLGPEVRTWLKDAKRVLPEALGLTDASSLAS
The assay is described as above. In kind it is biochemical. The conditions noted are these: 0.89 mM thiamine-HCl with a co-substrate, 25 mM sodium phosphate, 37 °C; recombinant positive control.

In the case of `Cc1ncc(C[n+]2csc(CCO)c2C)c(N)n1` [thiamine-HCl], the “in-gel thiaminase I activity staining (diazo-coupling) after electrophoresis” value in assay [1] was “expressed in the soluble fraction of the protein extract and showed thiaminase I activity”; in assay [2], “stained for activity showing thiamine degradation as clear areas”.
